# Data taken from patent US11608341B2, “Substituted tetrahydropyrazolo[3,4-d]pyrimidines and tetrahydropyrazolo[4,3-d]pyrimidines as C5A receptor modulators” (Idorsia Pharmaceuticals Ltd., priority 2018, dated 2023).
# pIC50: −log10 of the molar value.
# Biological target: T1, C5AR1 (Homo sapiens, UniProt P21730)
# T1 construct: host or cells: CHO-K1
# T1 sequence (P21730 1-350): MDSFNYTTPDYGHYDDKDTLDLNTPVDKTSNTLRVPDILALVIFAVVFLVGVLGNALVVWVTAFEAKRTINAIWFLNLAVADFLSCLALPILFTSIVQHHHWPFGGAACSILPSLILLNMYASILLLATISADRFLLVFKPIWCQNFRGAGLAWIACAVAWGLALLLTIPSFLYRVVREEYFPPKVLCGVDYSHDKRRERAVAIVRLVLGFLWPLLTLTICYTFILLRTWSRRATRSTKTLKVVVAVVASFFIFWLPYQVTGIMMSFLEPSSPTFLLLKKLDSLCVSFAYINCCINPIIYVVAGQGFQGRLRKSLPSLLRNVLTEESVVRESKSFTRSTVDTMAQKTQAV
# Experiment: In vitro assay: antagonism of C5a-induced beta-arrestin recruitment (PathHunter) in CHO-K1 C5AR1 beta-arrestin cell line
# Format: cell-based
# Conditions: antagonistic activity, 1-10 nM C5a agonist, geometric mean where several measurements, read-out: C5aR IC50
# Method in brief: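 Antagonist or DMSO added first, then C5a (1-10 nM, added at 6-fold end concentration), 1.5 h at 37 °C. PathHunter detection reagent was added for 45 min at RT before plate reading. IC50s come from antagonist serial dilutions in nmol/l and are geometric means of several measurements.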
row,pIC50,Compound
1,7.68,"Cc1cccc(F)c1N1CCC(N2C(=O)N(Cc3ccccc3C(F)(F)F)c3c[nH]nc3C2C)CC1 (single isomer, unassigned) [Example 263]"
2,8.00,Cc1cccc(F)c1N1CCC(N2Cc3cn(CC4(F)CC4)nc3N(Cc3ccccc3C(F)(F)F)C2=O)CC1 [Example 167]
3,8.00,Cc1cccc(F)c1N1CCC(N2Cc3nn(C4CC4)cc3N(Cc3ncccc3C(F)(F)F)C2=O)CC1 [Example 212]
4,7.25,"Cc1cccc(F)c1N1CCC(N2C(=O)N(Cc3ccccc3C3CC3)c3cn(CC(C)(F)F)nc3C2C)CC1 (single isomer, unassigned) [Example 277]"
5,7.54,Cc1cccc(F)c1N1CCC(N2Cc3cn(C[C@H]4CC(F)(F)CN4)nc3N(Cc3ccccc3C(F)(F)F)C2=O)CC1 [Example 111]
6,8.00,"CC1c2nn(C3CC3)cc2N(Cc2ccccc2C(F)(F)F)C(=O)N1C1CCN(c2c(F)cccc2Cl)CC1 (single isomer, unassigned) [Example 328]"
7,7.85,Cc1cccc(F)c1N1CCC(N2Cc3cn(C4CN(C(=O)OC(C)C)C4)nc3N(Cc3ccccc3C(F)(F)F)C2=O)CC1 [Example 127]
8,6.86,CC(=O)N1CCCC1Cn1cc2c(n1)N(Cc1ccccc1C(F)(F)F)C(=O)N(C1CCN(c3c(C)cccc3F)CC1)C2 (stereo not drawn) [Example 115]
9,8.30,Cc1cccc(F)c1N1CCC(N2Cc3cn(CC(C)(F)F)nc3N(Cc3ncccc3C(F)(F)F)C2=O)CC1 [Example 194]
10,7.92,"CC1c2cn(C)nc2N(Cc2ccccc2C2CC2)C(=O)N1C1CCN(c2c(F)cccc2Br)CC1 (single isomer, unassigned) [Example 384]"
11,7.89,COC(=O)Cn1cc2c(n1)N(Cc1ccccc1C(F)(F)F)C(=O)N(C1CCN(c3c(C)cccc3F)CC1)C2 [Example 17]
12,6.47,Cc1cccc(F)c1N1CCC(N2Cc3cn(C[C@@H]4CCN4)nc3N(Cc3ccccc3C(F)(F)F)C2=O)CC1 [Example 122]
13,7.12,"CC(c1ccccc1C(F)(F)F)N1C(=O)N(C2CCN(c3c(F)cccc3C#N)CC2)Cc2cn(C)nc21 (single isomer, unassigned) [Example 288]"
14,8.10,"COc1nccc(C(F)(F)F)c1N1CCC(N2C(=O)N(Cc3ccccc3C3CC3)c3nn(C)cc3C2C)CC1 (single isomer, unassigned) [Example 374]"
15,7.01,"COc1nccc(C(F)(F)F)c1N1CCC(N2C(=O)N(Cc3ccccc3C(F)(F)F)c3nn(C)cc3C2C)CC1 (single isomer, unassigned) [Example 363]"
16,6.24,"COc1nccc(C)c1N1CCC(N2C(=O)N(Cc3ncccc3C(F)(F)F)c3nn(C)cc3C2C)CC1 (single isomer, unassigned) [Example 357]"
17,7.26,"CC(c1ccccc1C(F)(F)F)N1C(=O)N(C2CCN(c3c(F)cccc3C#N)CC2)Cc2cn(C)nc21 (single isomer, unassigned) [Example 289]"
18,7.32,Cn1cc2c(n1)CN(C1CCN(c3c(F)cccc3Cl)CC1)C(=O)N2Cc1ccccc1C(F)(F)F [Example 302]
19,6.73,"COc1nccc(C(F)F)c1N1CCC(N2C(=O)N(Cc3ccccc3C(F)(F)F)c3nn(C4CC4)cc3C2C)CC1 (single isomer, unassigned) [Example 359]"
20,7.68,Cc1cccc(F)c1N1CCC(N2Cc3cn(C4CN(C(=O)OC5(C)COC5)C4)nc3N(Cc3ccccc3C(F)(F)F)C2=O)CC1 [Example 141]
21,7.80,"Cc1cccc(F)c1N1CCC(N2C(=O)N(Cc3ccccc3C(F)(F)F)c3cn(CC(C)(F)F)nc3C2C)CC1 (single isomer, unassigned) [Example 253]"
22,7.16,Cn1cc2c(n1)CN(C1CCN(c3c(F)cccc3C(F)F)CC1)C(=O)N2Cc1ccccc1C(F)(F)F [Example 301]
23,6.33,"Cc1cccc(F)c1N1CCC(N2Cc3nn(C)cc3N(C(C)c3ccccc3C(F)(F)F)C2=O)CC1 (single isomer, unassigned) [Example 262]"
24,6.51,Cc1cccc(F)c1N1CCC(N2Cc3cn(C)nc3N(Cc3c(F)cc(F)cc3OC(C)C)C2=O)CC1 [Example 236]
